Entries after “also recorded” stand apart in the source; their conditions may differ.
How the values were obtained:
[1] = tested on: human platelets; assay: In vitro human platelet aggregation assay (thrombin-induced)
[2] = tested on: isolated canine Purkinje fibers; assay: Action potential duration in isolated canine Purkinje fibers in vitro; conditions: 10 and 100 μM
Description: Compound IV exerts little or no in vitro inhibitory effects (IC50≧300 μM) on the hERG channel.

[3] = tested on: male or female dogs; assay: Single and repeated oral dose toxicity in dogs (up to 28 days); type: in vivo, dog
Excerpt: Compound IV was well-tolerated by rats and dogs after single and repeated oral administration (up to 28 days).

[4] = molecular target: T1, PPAR-α (Homo sapiens, UniProt Q07869); assay: Nuclear receptor cross-reactivity transcriptional activation assay; type: cell-based; conditions: agonist and antagonist modes
T1 construct: expressed in transfected cells
Excerpt: (§1) Compound IV was screened for cross-reactivity against rat isoforms of glucocorticoid receptor (GR), mineralocorticoids receptor (MR), progesterone receptor (PR), androgen receptor (AR) and human isoforms of farnesoid X receptor (FXR), liver X receptor (LXR), peroxisome proliferator-activated receptors (PPAR-α and PPAR-γ), and retinoid X receptor (RXR-α) in both agonist and antagonist modes in transcriptional activation assays.

[5] = molecular target: T2, farnesoid X receptor (FXR) (Homo sapiens, UniProt Q96RI1); assay: as above; type: cell-based; conditions: agonist and antagonist modes
T2 construct: expressed in transfected cells
Excerpt: as §1

[6] = molecular target: T3, progesterone receptor (PR) (Rattus norvegicus, UniProt Q63449); assay: as above; type: cell-based; conditions: agonist and antagonist modes
T3 construct: expressed in transfected cells
Excerpt: as §1

[7] = molecular target: T4, androgen receptor (AR) (Rattus norvegicus, UniProt P15207); assay: as above; type: cell-based
T4 construct: expressed in transfected cells
Excerpt: as §1

[8] = molecular target: T5, mineralocorticoids receptor (MR) (Rattus norvegicus, UniProt P22199); assay: as above; type: cell-based; conditions: agonist and antagonist modes
T5 construct: expressed in transfected cells
Excerpt: as §1

[9] = molecular target: T6, PPAR-γ (Homo sapiens, UniProt P37231); assay: as above; type: cell-based; conditions: agonist and antagonist modes
T6 construct: expressed in transfected cells
Excerpt: as §1

[10] = molecular target: T7, retinoid X receptor (RXR-α) (Homo sapiens, UniProt P19793); assay: as above; type: cell-based; conditions: agonist and antagonist modes
T7 construct: expressed in transfected cells
Excerpt: as §1

[11] = molecular target: T8, glucocorticoid receptor (GR) (Rattus norvegicus, UniProt P06536); assay: as above; type: cell-based
T8 construct: expressed in transfected cells
T8 sequence (P06536 1-795): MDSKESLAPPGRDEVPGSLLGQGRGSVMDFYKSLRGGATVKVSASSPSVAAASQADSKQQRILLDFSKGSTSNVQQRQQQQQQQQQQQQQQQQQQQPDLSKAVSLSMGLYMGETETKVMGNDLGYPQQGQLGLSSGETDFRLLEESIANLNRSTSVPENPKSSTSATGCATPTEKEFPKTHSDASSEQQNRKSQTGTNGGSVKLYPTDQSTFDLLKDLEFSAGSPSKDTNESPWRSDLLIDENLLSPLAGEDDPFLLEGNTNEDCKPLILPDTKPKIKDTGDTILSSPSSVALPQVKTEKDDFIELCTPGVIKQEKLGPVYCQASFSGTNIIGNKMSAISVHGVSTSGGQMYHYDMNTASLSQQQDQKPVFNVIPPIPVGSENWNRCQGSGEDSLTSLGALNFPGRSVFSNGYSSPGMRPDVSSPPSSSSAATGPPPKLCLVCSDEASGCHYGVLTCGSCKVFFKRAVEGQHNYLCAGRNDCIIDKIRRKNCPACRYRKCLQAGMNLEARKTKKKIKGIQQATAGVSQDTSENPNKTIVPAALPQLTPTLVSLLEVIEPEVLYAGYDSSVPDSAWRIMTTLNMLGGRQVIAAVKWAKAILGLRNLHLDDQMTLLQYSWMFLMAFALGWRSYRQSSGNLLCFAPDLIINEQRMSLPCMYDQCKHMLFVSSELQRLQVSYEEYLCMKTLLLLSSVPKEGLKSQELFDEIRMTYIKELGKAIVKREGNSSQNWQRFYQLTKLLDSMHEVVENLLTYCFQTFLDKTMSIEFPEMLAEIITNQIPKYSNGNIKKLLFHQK
Excerpt: as §1

[12] = molecular target: rat ER-α (Rattus norvegicus, UniProt P06211)
[13] = tested on: treatment naïve prostate cancer patients; assay: Study 5: loading dose study (1000 mg BID, 1500 mg BID) in treatment naïve prostate cancer patients; type: in vivo; conditions: for Castration (%): patients receiving >14 days; for Subjects that reached castrate levels of serum total testosterone: subjects that had reached Day 28
Description: Another study (Study 5) to assess 1000 mg twice per day and 1500 mg twice daily loading doses of Compound IV for 28 days was conducted. Subjects that were castrate on Day 28 received either 1000 mg or 2000 mg Compound IV daily to maintain the castration.
Thirty (30) and 28 subjects were randomized to the 1500 mg BID and 1000 mg BID loading doses, respectively. Among the subjects that had reached Day 28, 90% (18/20) of the subjects in the 1500 mg BID dose group and 94% (17/18) of the subjects in the 1000 mg BID dose group had reached castrate levels of serum total testosterone. During this study, two (2) subjects in the 1500 mg BID dose group experienced a VTE, including one fatal pulmonary embolus (PE) and three (3) subjects in the 1000 mg BID dose group experienced a VTE. See FIG. 26 for an overview of all the clinical studies on Compound IV.

[14] = tested on: male Sprague-Dawley rats; assay: Recovery of testosterone levels after 3-day oral dosing in rats; type: in vivo, rat; conditions: 1 mg/kg oral for three days; no recovery
Excerpt: Thirty-five (35) male Sprague-Dawley rats weighing approximately 200 g were maintained on a 12-h light/dark cycle with food (2016 Teklad Global 16% Protein Rodent Diet, Harlan, Madison, Wis.) and water available ad libitum. The animal protocol was reviewed and approved by the Institutional Animal Care and Use Committee of the University of Tennessee.
The test article for this study was weighed and dissolved in PEG 300 (100%) (Acros Organics, NJ) to prepare the appropriate dose formulations. Animals were randomly assigned to one of the […] treatment groups (n=5 animals/group). The animals were housed in groups of 2 to 3 animals per cage. Group 1 was sacrificed at the initiation of the study (Day 1) for determination of baseline testosterone levels in intact animals. Groups 2-7 received daily doses of 1, 3, or 30 mg/kg via oral gavage (˜200 uL) for three days. Groups 2, 3, and 4 were sacrificed on Day 4 to measure maximal testosterone suppression. Groups 5, 6, and 7 were allowed to recover for 14 days with a drug free washout period.

[15] = tested on: prostate epithelial cancer cells; assay: Proliferation of prostate epithelial cancer cells in vitro; type: cell-based

T4 sequence (P15207 whole entry S389L): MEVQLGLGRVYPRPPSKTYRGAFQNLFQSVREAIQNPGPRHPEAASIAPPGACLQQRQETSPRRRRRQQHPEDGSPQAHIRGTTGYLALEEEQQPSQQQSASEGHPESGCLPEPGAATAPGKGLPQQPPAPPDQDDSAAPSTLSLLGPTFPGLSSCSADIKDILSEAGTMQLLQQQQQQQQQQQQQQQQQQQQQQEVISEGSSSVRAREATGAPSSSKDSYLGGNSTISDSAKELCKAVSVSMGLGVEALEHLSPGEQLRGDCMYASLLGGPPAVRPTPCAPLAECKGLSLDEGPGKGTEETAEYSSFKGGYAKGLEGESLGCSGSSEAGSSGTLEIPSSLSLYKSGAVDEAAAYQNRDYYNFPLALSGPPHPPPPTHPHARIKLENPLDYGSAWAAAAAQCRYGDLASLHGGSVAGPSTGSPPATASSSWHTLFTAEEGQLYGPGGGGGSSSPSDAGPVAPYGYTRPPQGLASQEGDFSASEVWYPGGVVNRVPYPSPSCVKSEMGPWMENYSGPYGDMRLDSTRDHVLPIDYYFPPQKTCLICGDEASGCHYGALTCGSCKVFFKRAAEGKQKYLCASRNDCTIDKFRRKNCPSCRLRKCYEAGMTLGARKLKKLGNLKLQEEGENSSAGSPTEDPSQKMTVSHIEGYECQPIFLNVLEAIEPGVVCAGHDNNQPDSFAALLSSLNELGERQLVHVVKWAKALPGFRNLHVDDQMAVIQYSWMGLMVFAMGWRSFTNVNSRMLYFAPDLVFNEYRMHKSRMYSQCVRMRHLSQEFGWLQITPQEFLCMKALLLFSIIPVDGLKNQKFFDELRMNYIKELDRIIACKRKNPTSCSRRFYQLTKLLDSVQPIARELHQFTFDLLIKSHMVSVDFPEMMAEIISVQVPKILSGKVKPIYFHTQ
Sequence of rat ER-α (P06211 whole entry): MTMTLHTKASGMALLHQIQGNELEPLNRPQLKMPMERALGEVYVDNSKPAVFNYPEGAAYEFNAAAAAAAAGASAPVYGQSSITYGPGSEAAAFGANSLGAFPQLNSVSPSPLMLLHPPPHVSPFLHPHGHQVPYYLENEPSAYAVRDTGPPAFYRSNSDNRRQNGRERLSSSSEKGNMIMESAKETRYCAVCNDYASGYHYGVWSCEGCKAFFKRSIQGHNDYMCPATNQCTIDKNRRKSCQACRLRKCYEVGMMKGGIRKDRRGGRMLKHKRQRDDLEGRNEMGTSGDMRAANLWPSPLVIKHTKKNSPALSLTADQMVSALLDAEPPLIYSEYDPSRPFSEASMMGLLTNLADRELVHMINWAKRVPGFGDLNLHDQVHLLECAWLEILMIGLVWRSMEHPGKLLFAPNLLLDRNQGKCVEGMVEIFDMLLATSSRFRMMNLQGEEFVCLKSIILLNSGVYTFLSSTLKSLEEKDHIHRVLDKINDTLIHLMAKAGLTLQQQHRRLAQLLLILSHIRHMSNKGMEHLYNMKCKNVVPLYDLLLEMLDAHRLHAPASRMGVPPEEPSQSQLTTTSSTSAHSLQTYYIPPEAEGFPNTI
T5 sequence (P22199 whole entry): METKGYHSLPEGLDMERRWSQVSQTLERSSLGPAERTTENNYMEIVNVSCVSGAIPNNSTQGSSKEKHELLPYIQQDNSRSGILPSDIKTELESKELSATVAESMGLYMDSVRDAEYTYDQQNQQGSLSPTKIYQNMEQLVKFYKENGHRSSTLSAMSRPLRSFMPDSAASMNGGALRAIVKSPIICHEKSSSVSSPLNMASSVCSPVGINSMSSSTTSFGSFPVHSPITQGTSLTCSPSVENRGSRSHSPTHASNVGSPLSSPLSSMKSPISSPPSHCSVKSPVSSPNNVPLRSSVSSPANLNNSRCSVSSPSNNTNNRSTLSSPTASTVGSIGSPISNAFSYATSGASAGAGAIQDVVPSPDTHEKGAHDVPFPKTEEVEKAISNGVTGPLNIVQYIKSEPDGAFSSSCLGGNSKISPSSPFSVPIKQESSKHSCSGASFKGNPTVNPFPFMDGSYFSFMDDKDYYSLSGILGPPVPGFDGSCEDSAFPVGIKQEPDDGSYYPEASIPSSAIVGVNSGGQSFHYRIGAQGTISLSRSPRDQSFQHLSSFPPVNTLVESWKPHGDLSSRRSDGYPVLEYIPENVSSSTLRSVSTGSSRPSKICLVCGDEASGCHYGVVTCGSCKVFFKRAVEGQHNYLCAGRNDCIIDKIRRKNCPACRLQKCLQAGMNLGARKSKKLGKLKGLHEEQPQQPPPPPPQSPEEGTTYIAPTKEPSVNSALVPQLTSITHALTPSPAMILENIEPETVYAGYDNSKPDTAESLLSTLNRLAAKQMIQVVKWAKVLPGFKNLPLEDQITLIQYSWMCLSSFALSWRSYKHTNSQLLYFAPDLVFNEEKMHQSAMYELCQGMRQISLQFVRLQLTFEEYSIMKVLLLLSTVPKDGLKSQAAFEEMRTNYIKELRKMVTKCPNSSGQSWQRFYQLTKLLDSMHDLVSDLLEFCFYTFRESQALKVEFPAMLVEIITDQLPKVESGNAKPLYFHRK
T7 sequence (P19793 whole entry): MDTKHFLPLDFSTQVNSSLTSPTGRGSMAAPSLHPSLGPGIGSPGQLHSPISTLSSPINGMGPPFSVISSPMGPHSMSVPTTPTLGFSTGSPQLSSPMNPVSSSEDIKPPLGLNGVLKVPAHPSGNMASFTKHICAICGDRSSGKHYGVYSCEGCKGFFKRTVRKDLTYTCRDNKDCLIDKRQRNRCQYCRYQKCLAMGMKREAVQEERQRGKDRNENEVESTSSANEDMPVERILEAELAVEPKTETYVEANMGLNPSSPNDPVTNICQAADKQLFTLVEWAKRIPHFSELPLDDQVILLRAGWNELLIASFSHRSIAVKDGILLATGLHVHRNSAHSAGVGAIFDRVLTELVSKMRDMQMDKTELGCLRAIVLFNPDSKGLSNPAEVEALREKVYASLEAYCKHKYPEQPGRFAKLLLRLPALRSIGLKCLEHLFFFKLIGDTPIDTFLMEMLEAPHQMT
T2 sequence (Q96RI1 whole entry): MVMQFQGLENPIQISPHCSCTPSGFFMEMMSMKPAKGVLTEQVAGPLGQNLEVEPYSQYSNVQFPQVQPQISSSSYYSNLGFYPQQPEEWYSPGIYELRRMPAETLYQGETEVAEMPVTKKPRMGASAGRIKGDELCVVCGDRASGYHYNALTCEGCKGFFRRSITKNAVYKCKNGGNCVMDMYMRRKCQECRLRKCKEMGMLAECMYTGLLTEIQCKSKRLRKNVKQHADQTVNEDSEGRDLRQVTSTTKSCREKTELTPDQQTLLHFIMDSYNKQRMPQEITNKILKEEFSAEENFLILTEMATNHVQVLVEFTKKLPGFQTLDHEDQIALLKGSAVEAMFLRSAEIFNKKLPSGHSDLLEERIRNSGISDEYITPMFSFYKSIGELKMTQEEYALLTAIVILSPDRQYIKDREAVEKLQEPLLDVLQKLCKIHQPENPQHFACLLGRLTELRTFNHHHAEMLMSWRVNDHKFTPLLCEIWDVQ
T6 sequence (P37231 whole entry): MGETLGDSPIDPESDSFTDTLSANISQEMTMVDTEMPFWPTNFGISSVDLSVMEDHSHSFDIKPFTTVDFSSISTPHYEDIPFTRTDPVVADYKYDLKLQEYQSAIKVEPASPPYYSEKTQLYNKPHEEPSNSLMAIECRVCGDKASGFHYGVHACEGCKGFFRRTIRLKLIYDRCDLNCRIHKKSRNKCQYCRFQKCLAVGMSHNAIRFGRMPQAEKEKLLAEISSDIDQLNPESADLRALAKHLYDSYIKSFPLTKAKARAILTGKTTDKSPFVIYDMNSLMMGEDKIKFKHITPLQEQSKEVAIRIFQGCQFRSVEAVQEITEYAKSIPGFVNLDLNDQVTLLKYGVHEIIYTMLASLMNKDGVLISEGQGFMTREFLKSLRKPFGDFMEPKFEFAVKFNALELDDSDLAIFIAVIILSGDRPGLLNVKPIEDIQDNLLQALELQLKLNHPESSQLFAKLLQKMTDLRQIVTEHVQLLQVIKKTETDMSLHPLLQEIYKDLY
T3 sequence (Q63449 whole entry): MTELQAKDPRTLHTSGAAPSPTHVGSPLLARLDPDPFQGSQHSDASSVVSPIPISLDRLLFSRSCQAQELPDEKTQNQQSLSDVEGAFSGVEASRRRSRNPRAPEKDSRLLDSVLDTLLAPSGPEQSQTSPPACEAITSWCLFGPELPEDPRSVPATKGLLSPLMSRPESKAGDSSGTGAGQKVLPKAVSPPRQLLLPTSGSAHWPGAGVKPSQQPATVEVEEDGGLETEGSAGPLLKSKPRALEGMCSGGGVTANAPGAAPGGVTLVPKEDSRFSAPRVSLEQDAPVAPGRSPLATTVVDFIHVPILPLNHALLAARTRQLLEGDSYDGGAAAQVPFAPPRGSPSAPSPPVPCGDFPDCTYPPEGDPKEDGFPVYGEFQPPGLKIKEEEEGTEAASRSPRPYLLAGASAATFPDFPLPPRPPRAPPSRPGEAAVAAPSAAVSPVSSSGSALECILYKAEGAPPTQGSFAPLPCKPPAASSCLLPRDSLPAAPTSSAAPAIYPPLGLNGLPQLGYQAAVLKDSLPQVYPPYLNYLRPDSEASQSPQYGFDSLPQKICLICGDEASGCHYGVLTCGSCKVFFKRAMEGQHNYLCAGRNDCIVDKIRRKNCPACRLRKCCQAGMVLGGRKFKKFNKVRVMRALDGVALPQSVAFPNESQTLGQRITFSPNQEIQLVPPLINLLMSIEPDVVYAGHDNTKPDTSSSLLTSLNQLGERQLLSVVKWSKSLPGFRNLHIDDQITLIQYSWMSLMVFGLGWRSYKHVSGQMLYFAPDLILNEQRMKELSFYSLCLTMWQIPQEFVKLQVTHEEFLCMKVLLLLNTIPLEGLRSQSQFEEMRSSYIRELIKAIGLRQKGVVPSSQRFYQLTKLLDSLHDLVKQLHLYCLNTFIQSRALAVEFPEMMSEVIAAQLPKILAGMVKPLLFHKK

O=C(c1ccc(O)c(F)c1)N(c1ccc(O)cc1)c1ccc(F)cc1 [Compound IV, 3-fluoro-N-(4-fluorophenyl)-4-hydroxy-N-(4-hydroxyphenyl)benzamide]
Procoagulatory activity compared with DES [1]: much lower procoagulatory activity than DES | APD50 [2]: dose-dependently decreased | APD90 [2]: dose-dependently decreased | Tolerability after single and repeated oral administration [3]: well-tolerated | Agonist or antagonist activity at PPAR-α [4]: did not display any agonist or antagonist activity | Agonist or antagonist activity at FXR [5]: did not display any agonist or antagonist activity | Agonist or antagonist activity at PR [6]: did not display any agonist or antagonist activity | Cross-reaction with androgen receptor (AR) ([7]; FIG. 12B): does not; also recorded: did not | Agonist or antagonist activity at AR ([7]; agonist and antagonist modes): did not display any agonist or antagonist activity | Agonist or antagonist activity at MR [8]: did not display any agonist or antagonist activity | Agonist or antagonist activity at PPAR-γ [9]: did not display any agonist or antagonist activity | Agonist or antagonist activity at RXR-α [10]: did not display any agonist or antagonist activity | Cross-reaction with glucocorticoid receptor (GR) ([11]; FIG. 12A): does not; also recorded: did not | Agonist or antagonist activity at GR ([11]; agonist and antagonist modes): did not display any agonist or antagonist activity | Antagonist effects on estradiol-stimulated transcriptional activation ([12]; estradiol 1 nM, Compound IV up to 10 μM): no antagonist effects were observed | Relative selectivity in transactivation potency for ERα over ERβ ([12]; normalized to estradiol values): 16 fold | Subjects that experienced a VTE ([13]; 1000 mg BID dose group): 3 subjects | Castration (%) ([13]; 1000 mg BID, D28): 84.2% | Castration (%) ([13]; 1000 mg BID, Ever): 90% | Subjects that reached castrate levels of serum total testosterone ([13]; 1000 mg BID): 94% | Subjects that experienced a VTE ([13]; 1500 mg BID dose group, including one fatal pulmonary embolus): 2 subjects | Castration (%) ([13]; 1500 mg BID, D28): 85.7% | Castration (%) ([13]; 1500 mg BID, Ever): 95.2% | Subjects that reached castrate levels of serum total testosterone ([13]; 1500 mg BID): 90% | Serum testosterone after dosing [14]: No significant suppression | Proliferation of prostate epithelial cancer cells [15]: does not increase proliferation; also recorded: did not increase proliferation

Reference: patent publication US9624161B2 (priority 2009, dated 2017)
